Reference: PubChem BioAssay (NCI)
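Where inhibition never reached the appropriate level, the endpoint shown equals the highest concentration tested. Otherwise, values were interpolated linearly from a five-concentration, 48-hour dose response in 96-well plates. Here, GI50 denotes the concentration required for 50% inhibition of growth. TGI is the concentration that stops growth completely.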

Tests used:
Assay in all cases: NCI-60 cell line screen, 48 h
OVCAR-8 ovarian = tested on: OVCAR-8 ovarian
HS 578T breast = tested on: HS 578T breast
K-562 leukemia = tested on: K-562 leukemia
SF-539 CNS = tested on: SF-539 CNS
SN12C renal = tested on: SN12C renal
PC-3 prostate = tested on: PC-3 prostate
HL-60(TB) leukemia = tested on: HL-60(TB) leukemia
HOP-92 NSCLC = tested on: HOP-92 NSCLC
MDA-MB-435 = tested on: MDA-MB-435
SK-MEL-2 melanoma = tested on: SK-MEL-2 melanoma
NCI-H522 lung = tested on: NCI-H522 lung
SNB-75 CNS = tested on: SNB-75 CNS
SR leukemia = tested on: SR leukemia
KM12 colon = tested on: KM12 colon
CAKI-1 renal = tested on: CAKI-1 renal
CCRF-CEM leukemia = tested on: CCRF-CEM leukemia
MALME-3M melanoma = tested on: MALME-3M melanoma
UO-31 renal = tested on: UO-31 renal
HCT-15 colon = tested on: HCT-15 colon
HCT-116 colon = tested on: HCT-116 colon
SW-620 colon = tested on: SW-620 colon
TK-10 renal = tested on: TK-10 renal
OVCAR-5 ovarian = tested on: OVCAR-5 ovarian
NCI-H226 lung = tested on: NCI-H226 lung
SF-268 CNS = tested on: SF-268 CNS
IGROV1 ovarian = tested on: IGROV1 ovarian
OVCAR-4 ovarian = tested on: OVCAR-4 ovarian
NCI-H23 lung = tested on: NCI-H23 lung
U251 CNS = tested on: U251 CNS
786-0 renal = tested on: 786-0 renal
NCI/ADR-RES ovarian = tested on: NCI/ADR-RES ovarian
HT29 colon = tested on: HT29 colon
HOP-62 NSCLC = tested on: HOP-62 NSCLC
SK-MEL-28 melanoma = tested on: SK-MEL-28 melanoma
EKVX NSCLC = tested on: EKVX NSCLC
NCI-H460 lung = tested on: NCI-H460 lung
DU-145 prostate = tested on: DU-145 prostate
RXF 393 renal = tested on: RXF 393 renal
SK-OV-3 ovarian = tested on: SK-OV-3 ovarian
T-47D breast = tested on: T-47D breast
A549 NSCLC = tested on: A549 NSCLC
MOLT-4 leukemia = tested on: MOLT-4 leukemia
MCF7 breast = tested on: MCF7 breast
MDA-MB-231 breast = tested on: MDA-MB-231 breast
COLO 205 colon = tested on: COLO 205 colon
SNB-19 CNS = tested on: SNB-19 CNS
HCC-2998 colon = tested on: HCC-2998 colon
UACC-62 melanoma = tested on: UACC-62 melanoma
SK-MEL-5 melanoma = tested on: SK-MEL-5 melanoma
M14 melanoma = tested on: M14 melanoma
BT-549 breast = tested on: BT-549 breast
A498 renal = tested on: A498 renal
UACC-257 melanoma = tested on: UACC-257 melanoma

C#CCNC1CCC(c2csc(C#C)n2)=C1C (stereo unspecified)
GI50 (OVCAR-8 ovarian): 3.06 µM | TGI (OVCAR-8 ovarian): > 100 µM | GI50 (HS 578T breast): 2.99 µM | TGI (HS 578T breast): 36.6 µM | GI50 (K-562 leukemia): 3.95 µM | TGI (K-562 leukemia): > 100 µM | GI50 (SF-539 CNS): 1.75 µM | TGI (SF-539 CNS): 3.28 µM | GI50 (SN12C renal): 3.94 µM | TGI (SN12C renal): > 100 µM | GI50 (PC-3 prostate): 3.79 µM | TGI (PC-3 prostate): > 100 µM | GI50 (HL-60(TB) leukemia): 2.3 µM | TGI (HL-60(TB) leukemia): 5.29 µM | GI50 (HOP-92 NSCLC): 1.21 µM | TGI (HOP-92 NSCLC): 2.91 µM | GI50 (MDA-MB-435): 16 µM | TGI (MDA-MB-435): 67 µM | GI50 (SK-MEL-2 melanoma): 24.8 µM | TGI (SK-MEL-2 melanoma): > 100 µM | GI50 (NCI-H522 lung): 1.83 µM | TGI (NCI-H522 lung): 3.85 µM | GI50 (SNB-75 CNS): 1.05 µM | TGI (SNB-75 CNS): 2.24 µM | GI50 (SR leukemia): 1.3 µM | TGI (SR leukemia): 8.24 µM | GI50 (KM12 colon): 9.09 µM | TGI (KM12 colon): > 100 µM | GI50 (CAKI-1 renal): 2.11 µM | TGI (CAKI-1 renal): 11.5 µM | GI50 (CCRF-CEM leukemia): 0.922 µM | TGI (CCRF-CEM leukemia): 4.94 µM | GI50 (MALME-3M melanoma): 1.68 µM | TGI (MALME-3M melanoma): 3.37 µM | GI50 (UO-31 renal): 0.136 µM | TGI (UO-31 renal): 0.306 µM | GI50 (HCT-15 colon): 6.66 µM | TGI (HCT-15 colon): 22.7 µM | GI50 (HCT-116 colon): 4.79 µM | TGI (HCT-116 colon): 70.1 µM | GI50 (SW-620 colon): 8 µM | TGI (SW-620 colon): 27.8 µM | GI50 (TK-10 renal): > 100 µM | TGI (TK-10 renal): > 100 µM | GI50 (OVCAR-5 ovarian): 4.77 µM | TGI (OVCAR-5 ovarian): > 100 µM | GI50 (NCI-H226 lung): 11.4 µM | TGI (NCI-H226 lung): > 100 µM | GI50 (SF-268 CNS): 2.59 µM | TGI (SF-268 CNS): 8.27 µM | GI50 (IGROV1 ovarian): 0.183 µM | TGI (IGROV1 ovarian): 0.391 µM | GI50 (OVCAR-4 ovarian): 23.5 µM | TGI (OVCAR-4 ovarian): > 100 µM | GI50 (NCI-H23 lung): 0.469 µM | TGI (NCI-H23 lung): 1.87 µM | GI50 (U251 CNS): 2.3 µM | TGI (U251 CNS): 6 µM | GI50 (786-0 renal): 0.195 µM | TGI (786-0 renal): 0.368 µM | GI50 (NCI/ADR-RES ovarian): 6.11 µM | TGI (NCI/ADR-RES ovarian): > 100 µM | GI50 (HT29 colon): 2.88 µM | TGI (HT29 colon): 10.3 µM | GI50 (HOP-62 NSCLC): 1.89 µM | TGI (HOP-62 NSCLC): 4.98 µM | GI50 (SK-MEL-28 melanoma): 25.1 µM | TGI (SK-MEL-28 melanoma): > 100 µM | GI50 (EKVX NSCLC): 2.51 µM | TGI (EKVX NSCLC): 46.9 µM | GI50 (NCI-H460 lung): 4.65 µM | TGI (NCI-H460 lung): > 100 µM | GI50 (DU-145 prostate): 5.97 µM | TGI (DU-145 prostate): > 100 µM | GI50 (RXF 393 renal): 2.66 µM | TGI (RXF 393 renal): 9.49 µM | GI50 (SK-OV-3 ovarian): 2.57 µM | TGI (SK-OV-3 ovarian): 7.41 µM | GI50 (T-47D breast): 3.88 µM | TGI (T-47D breast): > 100 µM | GI50 (A549 NSCLC): 10.3 µM | TGI (A549 NSCLC): > 100 µM | GI50 (MOLT-4 leukemia): 5.32 µM | TGI (MOLT-4 leukemia): 83.8 µM | GI50 (MCF7 breast): 3.41 µM | TGI (MCF7 breast): 18.3 µM | GI50 (MDA-MB-231 breast): 1.56 µM | TGI (MDA-MB-231 breast): 3.98 µM | GI50 (COLO 205 colon): 17.1 µM | TGI (COLO 205 colon): 39.1 µM | GI50 (SNB-19 CNS): 4.33 µM | TGI (SNB-19 CNS): > 100 µM | GI50 (HCC-2998 colon): 13.3 µM | TGI (HCC-2998 colon): 28.6 µM | GI50 (UACC-62 melanoma): 9.74 µM | TGI (UACC-62 melanoma): > 100 µM | GI50 (SK-MEL-5 melanoma): 7.98 µM | TGI (SK-MEL-5 melanoma): 24.2 µM | GI50 (M14 melanoma): 4.22 µM | TGI (M14 melanoma): 90.6 µM | GI50 (BT-549 breast): 1.8 µM | TGI (BT-549 breast): 3.58 µM | GI50 (A498 renal): 3.9 µM | TGI (A498 renal): 17.6 µM | GI50 (UACC-257 melanoma): 32.1 µM | TGI (UACC-257 melanoma): > 100 µM
